Measurements reported in PubChem BioAssay AID248 (DTP/NCI, 2004).
Values joined by “and” are separate entries in the source; they are usually repeats but may differ in a detail not shown here. Equal entries are not always repeated. Inconclusive results and toxic doses are left out.

Tested on: L1210 leukemia ip in BDF1 mice, survival T/C
Test: NCI In Vivo Anticancer Drug Screen. Data for tumor model L1210 Leukemia (intraperitoneal) in B6D2F1 (BDF1) mice
Settings: endpoint: mean survival time, higher = longer survival
Method in brief: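 Tumor cells were implanted, animals were treated, and survival was followed. The result divides the treated measurement by the vehicle-control measurement.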

[1] = dose: 100.0 mg/kg/injection, schedule: Q01DX001 (ip), vehicle: saline
[2] = dose: 200.0 mg/kg/injection, schedule: Q01DX001 (ip), vehicle: saline
[3] = dose: 400.0 mg/kg/injection, schedule: Q01DX001 (ip), vehicle: saline
[4] = dose: 100.0 mg/kg/injection, schedule: Q01DX009 (ip), vehicle: saline
[5] = dose: 200.0 mg/kg/injection, schedule: Q01DX009 (ip), vehicle: saline
[6] = dose: 100.0 mg/kg/injection, schedule: Q04DX003 (ip), vehicle: Klucel (hydroxypropylcellulose) (HPC)
[7] = dose: 200.0 mg/kg/injection, schedule: Q04DX003 (ip), vehicle: Klucel (hydroxypropylcellulose) (HPC)
[8] = dose: 400.0 mg/kg/injection, schedule: Q04DX003 (ip), vehicle: Klucel (hydroxypropylcellulose) (HPC)
[9] = dose: 100.0 mg/kg/injection, schedule: Q01DX009 (ip), vehicle: saline with Tween-80
[10] = dose: 200.0 mg/kg/injection, schedule: Q01DX009 (ip), vehicle: saline with Tween-80
[11] = dose: 400.0 mg/kg/injection, schedule: Q01DX009 (ip), vehicle: saline with Tween-80
[12] = dose: 100.0 mg/kg/injection, schedule: Q04DX003 (ip), vehicle: saline with Tween-80
[13] = dose: 50.0 mg/kg/injection, schedule: Q04DX003 (ip), vehicle: saline with Tween-80
[14] = dose: 200.0 mg/kg/injection, schedule: Q04DX003 (ip), vehicle: saline with Tween-80
[15] = dose: 400.0 mg/kg/injection, schedule: Q04DX003 (ip), vehicle: saline with Tween-80
[16] = dose: 100.0 mg/kg/injection, schedule: Q01DX009 (ip), vehicle: Klucel (hydroxypropylcellulose) (HPC)
[17] = dose: 200.0 mg/kg/injection, schedule: Q01DX009 (ip), vehicle: Klucel (hydroxypropylcellulose) (HPC)
[18] = dose: 400.0 mg/kg/injection, schedule: Q01DX009 (ip), vehicle: Klucel (hydroxypropylcellulose) (HPC)

CCOC(=O)Nc1cc(Cl)c2n[nH]nc2n1
T/C (dose: 25.0 mg/kg/injection, schedule: Q01DX005 (ip), vehicle: saline): 105 % of control | T/C (dose: 50.0 mg/kg/injection, schedule: Q01DX005 (ip), vehicle: saline): 113 % of control | T/C (dose: 100.0 mg/kg/injection, schedule: Q01DX005 (ip), vehicle: saline): 110 % of control

OC(COc1ccc(Cl)cc1)CN1CCN(c2ccc(Cl)cc2)CC1 (stereo not drawn)
T/C [1]: 97 % of control | T/C [2]: 95 % of control | T/C [3]: 95 % of control

CC1CCOC(C)O1 (stereo not drawn)
T/C [4]: 103 % of control | T/C (dose: 100.0 mg/kg/injection, schedule: Q04DX003 (ip), vehicle: saline): 100 % of control | T/C [5]: 91 % of control | T/C (dose: 200.0 mg/kg/injection, schedule: Q04DX003 (ip), vehicle: saline): 94 % of control | T/C (dose: 400.0 mg/kg/injection, schedule: Q01DX009 (ip), vehicle: saline): 96 % of control | T/C (dose: 400.0 mg/kg/injection, schedule: Q04DX003 (ip), vehicle: saline): 94 % of control

Cc1cc(C)n(C(=O)Nc2ccccc2)n1
T/C (dose: 100.0 mg/kg/injection, schedule: Q04DX002 (ip), vehicle: saline with Tween-80): 105 % of control | T/C (dose: 200.0 mg/kg/injection, schedule: Q04DX002 (ip), vehicle: saline with Tween-80): 100 % of control

O=P(OCC(Br)CBr)(OCC(Br)CBr)OCC(Br)CBr (stereo not drawn)
T/C (dose: 50.0 mg/kg/injection, schedule: Q04DX003 (ip), vehicle: Klucel (hydroxypropylcellulose) (HPC)): 107 % of control | T/C [6]: 98 % of control | T/C [7]: 106 % of control | T/C [8]: 106 % of control

CNC(=O)O/N=C/c1cccc(OC)c1
T/C [9]: 93 % of control | T/C [10]: 100 % of control | T/C [11]: 95 % of control

C=C[CH2][Sn]([c]1ccccc1)([c]1ccccc1)[c]1ccccc1
T/C (dose: 50.0 mg/kg/injection, schedule: Q01DX009 (ip), vehicle: saline): 92 % of control and 101 % of control | T/C [4]: 96 % of control and 101 % of control | T/C [12]: 91 % of control | T/C [5]: 96 % of control and 97 % of control

O=[N+]([O-])c1ccc(C[N+]23CCN(CC2)CC3)cc1
T/C (dose: 50.0 mg/kg/injection, schedule: Q01DX009 (ip), vehicle: saline with Tween-80): 96 % of control | T/C [13]: 106 % of control | T/C [9]: 102 % of control | T/C [12]: 106 % of control | T/C [14]: 101 % of control

CCCCn1cnc2c(SC3CCCC3)ncnc21
T/C (dose: 100.0 mg/kg/injection, schedule: Q01DX001 (ip), vehicle: other): 98 % of control | T/C (dose: 200.0 mg/kg/injection, schedule: Q01DX001 (ip), vehicle: other): 96 % of control | T/C (dose: 400.0 mg/kg/injection, schedule: Q01DX001 (ip), vehicle: other): 93 % of control

CN(CCO)c1c(Cl)c(=O)oc2ccc(Cl)cc12
T/C [12]: 90 % of control | T/C [14]: 92 % of control | T/C [15]: 89 % of control

CCN=C(N)Nc1ccc(NC(=O)c2ccc(C(=O)Nc3ccc(NC(N)=NCC)cc3)cc2)cc1
T/C (dose: 0.12 mg/kg/injection, schedule: Q01DX Z (ip), vehicle: carboxymethylcellulose (CMC)): 101 % of control | T/C (dose: 0.25 mg/kg/injection, schedule: Q01DX Z (ip), vehicle: carboxymethylcellulose (CMC)): 105 % of control | T/C (dose: 1.0 mg/kg/injection, schedule: Q01DX Z (ip), vehicle: carboxymethylcellulose (CMC)): 154 % of control | T/C (dose: 2.0 mg/kg/injection, schedule: Q01DX Z (ip), vehicle: carboxymethylcellulose (CMC)): 227 % of control | T/C (dose: 3.0 mg/kg/injection, schedule: Q01DX Z (ip), vehicle: carboxymethylcellulose (CMC)): 261 % of control | T/C (dose: 4.0 mg/kg/injection, schedule: Q01DX Z (ip), vehicle: carboxymethylcellulose (CMC)): 264 % of control | T/C (dose: 6.0 mg/kg/injection, schedule: Q01DX Z (ip), vehicle: carboxymethylcellulose (CMC)): 198 % of control | T/C (dose: 8.0 mg/kg/injection, schedule: Q01DX Z (ip), vehicle: carboxymethylcellulose (CMC)): 155 % of control | T/C (dose: 11.0 mg/kg/injection, schedule: Q01DX001 (ip), vehicle: carboxymethylcellulose (CMC)): 122 % of control | T/C (dose: 11.0 mg/kg/injection, schedule: Q01DX001 (ip), vehicle: other): 122 % of control | T/C (dose: 16.0 mg/kg/injection, schedule: Q01DX Z (ip), vehicle: carboxymethylcellulose (CMC)): 121 % of control | T/C (dose: 21.0 mg/kg/injection, schedule: Q01DX001 (ip), vehicle: carboxymethylcellulose (CMC)): 151 % of control | T/C (dose: 21.0 mg/kg/injection, schedule: Q01DX001 (ip), vehicle: other): 155 % of control | T/C (dose: 32.0 mg/kg/injection, schedule: Q01DX001 (ip), vehicle: carboxymethylcellulose (CMC)): 163 % of control | T/C (dose: 32.0 mg/kg/injection, schedule: Q01DX001 (ip), vehicle: other): 164 % of control | T/C (dose: 32.0 mg/kg/injection, schedule: Q01DX Z (ip), vehicle: carboxymethylcellulose (CMC)): 91 % of control | T/C (dose: 48.0 mg/kg/injection, schedule: Q01DX001 (ip), vehicle: carboxymethylcellulose (CMC)): 209 % of control | T/C (dose: 48.0 mg/kg/injection, schedule: Q01DX001 (ip), vehicle: other): 204 % of control | T/C (dose: 50.0 mg/kg/injection, schedule: Q01DX Z (oral), vehicle: carboxymethylcellulose (CMC)): 118 % of control | T/C (dose: 100.0 mg/kg/injection, schedule: Q01DX Z (oral), vehicle: carboxymethylcellulose (CMC)): 104 % of control | T/C (dose: 200.0 mg/kg/injection, schedule: Q01DX Z (oral), vehicle: carboxymethylcellulose (CMC)): 96 % of control | T/C (dose: 400.0 mg/kg/injection, schedule: Q01DX Z (oral), vehicle: carboxymethylcellulose (CMC)): 118 % of control

O=C(O)/C=C\Cc1cccc(=O)[nH]1
T/C (dose: 50.0 mg/kg/injection, schedule: Q01DX001 (ip), vehicle: Klucel (hydroxypropylcellulose) (HPC)): 94 % of control | T/C (dose: 100.0 mg/kg/injection, schedule: Q01DX001 (ip), vehicle: Klucel (hydroxypropylcellulose) (HPC)): 95 % of control | T/C (dose: 200.0 mg/kg/injection, schedule: Q01DX001 (ip), vehicle: Klucel (hydroxypropylcellulose) (HPC)): 97 % of control

CC(C)CC(O)CC(C)C
T/C [12]: 95 % of control | T/C (dose: 118.0 mg/kg/injection, schedule: Q01DX009 (ip), vehicle: saline with Tween-80): 108 % of control | T/C [14]: 93 % of control | T/C (dose: 250.0 mg/kg/injection, schedule: Q01DX009 (ip), vehicle: saline with Tween-80): 102 % of control | T/C [15]: 90 % of control

COc1ccc(/C=C/c2nc3ccccc3nc2/C=C/c2ccc(OC)c(OC)c2)cc1OC
T/C [16]: 95 % of control | T/C [6]: 88 % of control | T/C [17]: 86 % of control | T/C [7]: 91 % of control | T/C [8]: 97 % of control

N#C/C=C/c1cccc([N+](=O)[O-])c1
T/C [9]: 102 % of control | T/C [10]: 93 % of control | T/C [11]: 98 % of control

CCSC(SCC)C(OC(C)=O)C(OC(C)=O)C(OC(C)=O)C(CNC(C)=O)OC(C)=O (stereo not drawn)
T/C (dose: 25.0 mg/kg/injection, schedule: Q04DX003 (ip), vehicle: saline with Tween-80): 97 % of control | T/C [13]: 94 % of control | T/C [12]: 93 % of control and 89 % of control

CCSc1cccc(C(=O)O)c1
T/C (dose: 100.0 mg/kg/injection, schedule: Q01DX001 (ip), vehicle: carboxymethylcellulose (CMC)): 102 % of control | T/C (dose: 200.0 mg/kg/injection, schedule: Q01DX001 (ip), vehicle: carboxymethylcellulose (CMC)): 94 % of control | T/C (dose: 400.0 mg/kg/injection, schedule: Q01DX001 (ip), vehicle: carboxymethylcellulose (CMC)): 100 % of control

O=C(NCCBr)Nc1ccc2c(c1)CCCC2
T/C [6]: 102 % of control | T/C [7]: 93 % of control | T/C [8]: 93 % of control

Nc1nc(N)c(N=O)c(=O)[nH]1
T/C [1]: 105 % of control | T/C [16]: 99 % of control | T/C [2]: 95 % of control | T/C [17]: 100 % of control | T/C [3]: 94 % of control | T/C [18]: 97 % of control

Cc1n[nH]c(=S)n1N
T/C [12]: 115 % of control | T/C [14]: 102 % of control | T/C [15]: 96 % of control

Cc1c(Cl)c(Cl)c(C)c(Cl)c1Cl
T/C [16]: 86 % of control | T/C [6]: 95 % of control | T/C [17]: 89 % of control | T/C [7]: 101 % of control | T/C [18]: 87 % of control | T/C [8]: 93 % of control
